Test results reported in publication PMC3466269, “A Comprehensive Strategy to Discover Inhibitors of the Translesion Synthesis DNA Polymerase κ” (PLoS ONE, 2012).

Legend:
[1] = biological target: T1, Human pol κ (Homo sapiens, UniProt Q9UBT6); test: Radioactive gel-based primer extension assay on non-damaged DNA, pol κ; format: biochemical; conditions: primer extension, non-damaged DNA, 0.25 nM pol κ; average ± standard error, three experiments; read-out: gel: non-damaged: IC50
T1 construct: Human pol κ (residues 19–526) was purified as previously reported; made in house
T1 sequence (Q9UBT6 19-526): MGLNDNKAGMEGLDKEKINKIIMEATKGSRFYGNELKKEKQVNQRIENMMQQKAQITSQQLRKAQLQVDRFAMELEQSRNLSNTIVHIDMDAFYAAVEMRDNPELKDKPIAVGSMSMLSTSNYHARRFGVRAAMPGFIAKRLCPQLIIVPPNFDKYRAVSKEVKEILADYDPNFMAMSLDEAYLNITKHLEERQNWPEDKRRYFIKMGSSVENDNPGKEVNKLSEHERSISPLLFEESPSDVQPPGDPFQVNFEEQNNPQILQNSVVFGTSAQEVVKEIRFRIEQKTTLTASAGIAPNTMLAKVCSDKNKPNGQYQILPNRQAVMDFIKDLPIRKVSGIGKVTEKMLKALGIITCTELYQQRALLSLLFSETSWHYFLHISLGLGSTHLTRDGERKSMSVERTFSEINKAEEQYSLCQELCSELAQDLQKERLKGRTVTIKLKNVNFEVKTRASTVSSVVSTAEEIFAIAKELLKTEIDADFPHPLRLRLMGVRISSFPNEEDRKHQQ
Experimental: (§1) The reactions with pol κ, pol η, and pol ι were carried out in the buffers containing 25 mM Tris-HCl, pH 7.5, 8 mM MgCl2, 10% glycerol, 100 µg/mL bovine serum albumin, and 5 mM DTT. Buffers for pol δ reactions contained 40 mM Hepes-KOH, pH 6.8, 10% glycerol, 200 µg/mL bovine serum albumin, 1 mM DTT, and 8 mM MgCl2. Final concentration of pol κ, pol η, pol ι, or pol δ in the reaction was 0.25 nM, 1 nM, 2.5 nM, or 4 nM, respectively. In this assay, a polymerase was preincubated with the compound for 15 min at room temperature. Primer extensions were then initiated by the addition of DNA substrate at final concentration of 5 nM and carried out for 30 min at room temperature in the presence of 100 µM dCTP and dGTP. The reactions were terminated by the addition of an equal volume of a dye solution containing 95% (v/v) formamide, 10 mM EDTA, 0.03% (w/v) xylene cyanol, and 0.03% (w/v) bromphenol blue. Reaction products were separated through a 15% acrylamide gel containing 8 M urea and visualized with a PhosphorImager screen. The ratio of extended primer to the total amount of primer was measured using ImageQuant 5.2 software to calculate the percentage of primer extended. IC50 values were determined by fitting the data to variable slope four-parameter equations using GraphPad Prism 5.

[2] = biological target: T2, Human pol η (residues 1–437) (Homo sapiens, UniProt Q9Y253); test: Radioactive gel-based primer extension assay on non-damaged DNA, pol η; format: biochemical; conditions: average ± standard error, three experiments
T2 construct: Human pol η (residues1–437) was purified following the same procedures; made in house
T2 sequence (Q9Y253 1-437): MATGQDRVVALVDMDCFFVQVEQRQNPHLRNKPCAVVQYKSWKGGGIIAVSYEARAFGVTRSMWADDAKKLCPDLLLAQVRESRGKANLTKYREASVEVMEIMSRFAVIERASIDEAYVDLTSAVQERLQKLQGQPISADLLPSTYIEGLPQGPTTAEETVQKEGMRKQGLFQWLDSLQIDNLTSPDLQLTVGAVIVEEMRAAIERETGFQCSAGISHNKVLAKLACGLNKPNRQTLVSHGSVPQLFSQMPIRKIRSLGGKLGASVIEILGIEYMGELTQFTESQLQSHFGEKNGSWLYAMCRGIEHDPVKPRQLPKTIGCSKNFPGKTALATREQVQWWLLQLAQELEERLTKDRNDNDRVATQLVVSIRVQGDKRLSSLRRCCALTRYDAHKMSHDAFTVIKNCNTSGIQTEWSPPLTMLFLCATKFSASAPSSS
Experimental: as §1, with “Prism 5. […]” for “Prism 5.”

[3] = biological target: T3, Human pol ι (Homo sapiens, UniProt Q9UNA4); test: Radioactive gel-based primer extension assay on non-damaged DNA, pol ι; format: biochemical; conditions: average ± standard error, three experiments
T3 construct: purchased Enzymax Inc. (Lexington, KY)
T3 sequence (Q9UNA4 1-740): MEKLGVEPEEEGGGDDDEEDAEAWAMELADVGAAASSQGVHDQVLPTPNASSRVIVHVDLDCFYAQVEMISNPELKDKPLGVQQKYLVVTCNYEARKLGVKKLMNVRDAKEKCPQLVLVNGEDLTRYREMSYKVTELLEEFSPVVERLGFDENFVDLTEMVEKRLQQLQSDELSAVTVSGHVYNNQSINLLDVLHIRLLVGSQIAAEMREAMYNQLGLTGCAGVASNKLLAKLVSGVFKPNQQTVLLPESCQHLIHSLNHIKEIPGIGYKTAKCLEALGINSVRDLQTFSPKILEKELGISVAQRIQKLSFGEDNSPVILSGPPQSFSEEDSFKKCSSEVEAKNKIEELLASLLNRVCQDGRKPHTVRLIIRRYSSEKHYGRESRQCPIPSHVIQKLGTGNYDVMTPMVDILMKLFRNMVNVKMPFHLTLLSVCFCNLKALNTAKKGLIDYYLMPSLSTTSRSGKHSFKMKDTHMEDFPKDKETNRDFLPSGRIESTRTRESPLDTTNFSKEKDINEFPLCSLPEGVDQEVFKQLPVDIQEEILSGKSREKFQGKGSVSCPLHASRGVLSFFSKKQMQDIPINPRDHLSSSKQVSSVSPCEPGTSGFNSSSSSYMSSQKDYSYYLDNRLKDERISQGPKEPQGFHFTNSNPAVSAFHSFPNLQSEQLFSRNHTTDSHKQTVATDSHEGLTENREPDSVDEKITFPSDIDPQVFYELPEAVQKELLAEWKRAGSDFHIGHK
Experimental: as §1

[4] = tested on: double-stranded DNA ladder; test: DNA intercalation assay (agarose gel shift of DNA ladder); format: binding; conditions: 0.75 or 3 nmol compound with 1.5 nmol DNA, 1% agarose gel
Experimental: Candesartan cilexetil or ethidium bromide was incubated with 1.5 nmol of double-stranded DNA ladder for 15 min at room temperature in the buffer containing 50 mM Tris-HCl, pH 8.0, 0.01% Tween-20, 1 mM DTT, and 40 mM NaCl. The reaction mixtures were run on 1% agarose gel and stained with ethidium bromide (0.5 µg/ml) for visualization.
Figure 7 The non-DNA-intercalating property of candesartan cilexetil. Candesartan cilexetil or ethidium bromide was incubated with double-stranded DNA ladder, and the reaction products were run on 1% agarose gel and stained with ethidium bromide. Lane 1: No compound. Lane 2: 0.75 nmol of candesartan cilexetil was incubated with 1.5 nmol DNA. Lane 3: 3 nmol of candesartan cilexetil was incubated with 1.5 nmol DNA. Lane 4: 0.75 nmol of ethidium bromide was incubated with 1.5 nmol DNA. Lane 5: 3 nmol of ethidium bromide was incubated with 1.5 nmol DNA.

## CCOc1nc2cccc(C(=O)OC(C)OC(=O)OC3CCCCC3)c2n1Cc1ccc(-c2ccccc2-c2nnn[nH]2)cc1 (stereo not shown) [candesartan cilexetil, Candesartan cilexetil]
[1]
  IC50: 9.2 ± 0.5 µM
[2]
  IC50: 11.2 ± 1 µM
[3]
  IC50: 6.2 ± 0.6 µM
[4]
  DNA migration pattern (intercalation): no difference in DNA migration pattern
